Where a name gives a salt, the structure may show the parent alone. Read-outs that look alike come from different tables or passages of the source.
What was measured:
[1] = target: Vpu protein (Human immunodeficiency virus type 1 group M subtype B, UniProt P05919); conditions: for Vpu Inhibition (score/# of times tested): halo of growth score between zero and six, XL1-blue E. coli with pPL-Vpu, no adenine, 37° C.
[2] = system: bovine coronavirus (BCV); experiment: BCV plaque assay in MDBK cells; format: cell-based; conditions: Betacoronavirus 1; BCV plaques in MDBK cells
[3] = system: HIV; format: cell-based; conditions: for At least 1x log reduction seen in p24 assay?: Table 19b, yes/no
[4] = target: 229E-CoV E-protein (Human coronavirus 229E, UniProt P19741); experiment: Bacterial bio-assay for 229E-CoV E-protein; conditions: halo of growth score; E. coli expressing E protein at 37° C.
[5] = system: porcine respiratory coronavirus (PRCV) strain AR310; experiment: PRCV plaque assay in ST cells; format: cell-based; conditions: Alphacoronavirus 1; PRCV plaques in ST cells
[6] = system: MHV (strain MHV-A59); conditions: L929 cells
[7] = target: SARS-CoV E protein (Severe acute respiratory syndrome coronavirus, UniProt P59637); format: cell-based
[8] = target: SARS E protein ion channel (Severe acute respiratory syndrome coronavirus, UniProt P59637); format: biochemical, SARS-CoV
[9] = system: MHV (strain MHV-A59); experiment: microbe, parasite or virus in culture; conditions: Murine coronavirus, L929, read-out: Percent reduction in Plaque number/# experiments
[10] = system: human coronavirus OC43; experiment: microbe, parasite or virus in culture; format: cell-based; conditions: Betacoronavirus 1, OC43, MRC5, 120 h, MRC-5 cells, 5 days post infection
[11] = system: SARS-CoV (Hong Kong strain); format: cell-based, SARS coronavirus; conditions: for Titre (% control): 48 hours; for Average TCID50 (×10^6): 48 hours post infection
[12] = Table 19a, rank among 12 compounds, 1 = highest score

| Structure (SMILES) | Bacterial assay rank order [1, 12] | Bacterial assay rank order ([1]; Table 19b) | Vpu Bacterial score ([1]; Table 19b) | Vpu Inhibition (score/# of times tested) [1] | EC50 [2] [µM] | At least 1x log reduction seen in p24 assay? [3] | 229E E protein Inhibition (score) [4] [score] | EC50 [5] [µM] | Percent reduction in Plaque number/# experiments ([6]; 1 uM) | Percent reduction in Plaque number/# experiments ([6]; 10 uM) | Percent reduction in Plaque number/# experiments ([6]; 20 uM) | SARS E protein Inhibition (score/# of times tested) [7] | % Reduction of average current by 100 μM [8] [%] | inhibition at 2.5 µM [10] [%] | also measured |
| --- | --- | --- | --- | --- | --- | --- | --- | --- | --- | --- | --- | --- | --- | --- | --- |
| N=C(N)NC(=O)Cc1ccc2ccccc2c1 [2-(2-napthyl)acetoylguanidine] | 11 | 11 | 1.2 | 1.19/2 score | 99 | no | 0.1 | 120 | 23/1% | 20/2% | 52/1% | 0.71/1 score | – | – | – |
| N/C(=N\C(=O)c1nc(Cl)c(N)nc1N)NCc1ccc(Cl)cc1Cl [2′4 DichloroBenzamil HCl] | – | – | – | 1.7/2 score | – | – | – | – | 0/3% | 0/3% | 12/2% | 3.00/2 score | 78 ± 0 | – | – |
| CCCCC/C=C/c1cccc(/C=C/C(=O)NC(=N)N)c1 [3-(trans-hept-1-en-1-yl)cinnamoylguanidine] | – | – | – | 0.81/2 score | – | – | – | – | – | – | – | 1.71/1 score | – | – | inhibition at 1 µM [9]: -6%; inhibition at 10 µM [9]: 23% |
| N=C(N)NC(=O)/C=C/c1cccc(C(F)(F)F)c1 [3-(trifluoromethyl)cinnamoylguanidine] | 2 | 2 | 3.7 | 3.7/2 score | 3 | yes | 2.3 | – | 40/1% | 83/1% | 98/1% | 2.67/1 score | – | 84 | Percent of Positive Control ([3]; Drug Conc. 0.625 μM): 38%; Percent of Positive Control ([3]; Drug Conc. 1.25 μM): 27%; Percent of Positive Control ([3]; Drug Conc. 2.5 μM): 25%; Percent of Positive Control ([3]; Drug Conc. 5 μM): 8%; Percent of Positive Control ([3]; Drug Conc. 10 μM): 11% |
| Cc1cccc(/C=C/C(=O)NC(=N)N)c1 [3-methylcinnamoylguanidine] | 3 | 3 | 3.4 | 3.4/2 score | – | yes | 0.5 | 1.43 | 39/1% | 88/1% | 90/1% | 1.00/1 score | – | 100 | – |
| N=C(N)NC(=O)c1ccc(-c2ccccc2)cc1 [4-phenylbenzoylguanidine] | 7 | 7 | 2.8 | 2.75/5 score | 190 | no | 2.3 | – | 5/1% | 24/1% | 32/1% | 0.63/2 score | – | – | Percent of Positive Control ([3]; Drug Conc. 0.625 μM): 10%; Percent of Positive Control ([3]; Drug Conc. 1.25 μM): 216%; Percent of Positive Control ([3]; Drug Conc. 2.5 μM): 9%; Percent of Positive Control ([3]; Drug Conc. 5 μM): 4%; Percent of Positive Control ([3]; Drug Conc. 10 μM): 26% |
| COc1ccc2cc(C(=O)NC(=N)N)ccc2c1 [6-methoxy-2-naphthoylguanidine] | 5.5 | 5.5 | 2.9 | 2.9/4 score | 9 | yes | 1.4 | 0.04 | 34/3% | 56/3% | 88/3% | 3.13/3 score | 92 ± 16 | 47 | Titre (% control) ([11]; Compound Concentration 2 uM): 118 % control; Average TCID50 (×10^6) ([11]; Compound Concentration 2 uM): 6.35 ×10^6; Titre (% control) ([11]; Compound Concentration 10 uM): 111 % control; Average TCID50 (×10^6) ([11]; Compound Concentration 10 uM): 5.95 ×10^6 |
| N=C(N)NC(=O)/C=C/c1ccccc1Br [(2-Bromocinnamoyl)guanidine] | – | – | – | 3.7/2 score | – | – | 0.9 | – | 52/3% | 89/3% | 91/2% | 2.47/3 score | 88 ± 6 | – | – |
| NC(N)=NC(=O)/C=C/C=C/c1ccccc1 [(5-Phenyl-penta-2,4-dienoyl)guanidine] | 8 | 8 | 2.6 | 2.56/2 score | 95 | no | 1.8 | – | 17/1% | 24/1% | 27/1% | 0.44/2 score | – | 9 | – |
| N=C(N)NC(=O)C1CC1c1ccccc1 (stereo not drawn) [(trans-2-Phenylcyclopropanecarbonyl)guanidine] | 12 | 12 | 0.4 | 0.4/2 score | 109 | no | 0.8 | 17.2 | 31/2% | 64/2% | 77/2% | 1.34/3 score | – | 71 | – |
| O=C(CCc1ccccc1)NC(=Nc1ccccc1)NC(=O)CCc1ccccc1 [N,N′-bis(3phenylpropanoyl)-N″-phenylguanidine] | – | – | – | 2.25/3 score | – | – | 0.1 | – | 1/3% | 40/4% | 67/3% | 1.33/3 score | 88 ± 6 | – | – |
| N=C(NC(=O)CCc1ccccc1)Nc1ccccc1 [N-(3-phenylpropanoyl)-N′-phenylguanidine] | 9 | 9 | 2.2 | 2.21/3 score | 156 | no | 0.1 | 19 | 43/1% | 65/1% | 80/1% | 1.57/2 score | – | – | – |
